# Experimental data: patent US7696201B2, “Modulators of muscarinic receptors” (Vertex Pharmaceuticals Incorporated, priority 2006, dated 2010)
# Assays:
# Assay type in all cases: cell-based
# M4 muscarinic receptor = target: T1, M4 muscarinic receptor (Homo sapiens, UniProt P08173); test: Functional mobilization of intracellular calcium (FLIPR), M4-CHO cells; details: for Emax: 100% efficacy is the maximum response obtained with the Carbachol control; for M4 Activity: CHO cells expressing M4, calcium mobilization
# T1 construct: expressed in transfected cells; host or cells: CHO (M4-CHO)
# T1 sequence (P08173 1-479): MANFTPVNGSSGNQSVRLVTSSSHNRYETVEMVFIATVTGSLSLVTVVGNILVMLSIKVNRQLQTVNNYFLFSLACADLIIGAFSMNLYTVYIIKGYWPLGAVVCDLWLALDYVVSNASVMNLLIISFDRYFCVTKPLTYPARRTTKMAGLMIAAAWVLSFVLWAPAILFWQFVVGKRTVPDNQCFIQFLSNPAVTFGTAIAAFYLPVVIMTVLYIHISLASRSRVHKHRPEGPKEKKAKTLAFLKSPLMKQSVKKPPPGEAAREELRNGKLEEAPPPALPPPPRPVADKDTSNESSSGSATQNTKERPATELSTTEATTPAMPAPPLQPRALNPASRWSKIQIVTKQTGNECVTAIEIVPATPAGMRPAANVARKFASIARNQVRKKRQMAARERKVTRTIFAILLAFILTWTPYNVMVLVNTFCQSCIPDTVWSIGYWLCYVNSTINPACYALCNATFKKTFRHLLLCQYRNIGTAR
# Method: (§1) Functional Mobilization of Intracellular Calcium to Determine Muscarinic Receptor Activity:
# (§2) CHO cells expressing muscarinic receptors (M1 to M5) are grown as monolayers in tissue culture flasks at 37° C. in a humidified atmosphere containing 5% CO2 and passaged every 3-5 days. The growth media is Dulbecco's modified eagles medium (DMEM, Gibco Cat# 12430-054), containing 25 mM Hepes and supplemented with Fetal Bovine Serum (Hyclone, cat# SH30071.03), 0.1 mM of MEM non-essential amino acids (GIBCO, Cat# 11140-050), 1 mM MEM Sodium Pyruvate (GIBCO Cat# 11360-070) and 100 units/ml of Penicillin G and 100 μg/ml of Streptomycin (GIBCO Cat# 15140-122). The recombinant muscarinic receptor cell lines are grown under antibiotic pressure with media containing 25 μg/ml zeocin and 500 μg/ml G418 (M1-CHO), 4 μg/ml puromycin, 50 μg/ml zeocin and 2.5 μg/ml blasticidin (M2 and M4-CHO) or 50 μg/ml zeocin and 4 μg/ml puromycin (M3 and M5-CHO).
# (§3) Cells are harvested at 80-90% confluence using Versene (GIBCO Cat# 15040-066), collected by centrifugation and seeded 18-24 hours prior to running the calcium assay at a density of 5,000-10,000 cells/well in […], clear-bottomed 384-well plates (BD Biocoat, poly-D-lysine, Cat#356663). The day of the experiment, the cells are washed with a plate washer (Bioteck Instruments, ELX 405) using Bath 1 buffer (140-mM NaCl, 4.5-mM KCl, 2-mM CaCl2, 1-mM MgCl2, 10-mM Hepes-Na, 10-mM Glucose, pH 7.4, with NaOH) containing 1 mM Probenecid. Next, the calcium dye Fluo-3 (25 μl/well of Fluo-3 AM at 4 μM, Molecular Probes F-1241, in Bath 1 buffer containing 1 mM Probenecid) is added to the 25 μl of Bath 1 remaining in each well after the plate wash and the dye is loaded at 37° C. in the tissue culture incubator for 60-90 min. The fluorescent dye is removed using the plate washer with Bath 1 containing 1 mM Probenecid, leaving 25 μl/well of this solution after the wash. Alternatively, cells can be loaded with the calcium indicator from Molecular Devices (Calcium 3 Assay Reagents, Cat # R7181) adding 5 μl of a 5× solution dye in Bath 1 containing 1 mM Probenecid (10 ml per dye flask cat# R7182 to generate a solution 20×) to 20 μl of the same buffer. After loading for 60 min, the experiment can be run without having to remove the dye.
# (§4) Compounds are prepared at a 2× fold concentration in a 96-well plate (round bottom, Costar Corning cat# 3656), by reconstituting the pre-spotted compounds in bath 1 containing 1 mM probenecid. The final concentration DMSO is 0.5%, and the amount of DMSO is normalized across the assay plate. To determine an agonist action of the compounds on muscarinic receptors, the reconstituted compounds are added (25 μl compound/well) to the cell assay plate (containing 25 μl/well) using the multi-channel robotic system of the FLIPR 3 Instrument (Molecular Devices, Sunnyvale, Calif.). To determine a functional inhibitory action of the compounds on muscarinic receptors, the reconstituted compounds are added (25 μl compound/well) to the assay plate and pre-incubated for 15 min prior to adding 25 μl of Carbachol at 3× the EC80 for each muscarinic subtype. Alternatively, the compounds can be co-applied simultaneously with the agonist. In both assay modes, the fluorescence is recorded for 60 sec (excitation wavelength is […] and emission wavelength 540 nm) using the FLIPR 3 instrument.
# (§5) The potency, efficacy and selectivity of the muscarinic compounds were evaluated by screening the compound activity across the whole family (M1 to M5 cells). Compounds were also screened for activity on other proteins such as other GPCRs and ion channels to determine selectivity on M4 receptors.
# (§6) Examples of activities and efficacies of the muscarinic compounds of formulae (I, Ia, Ib, Ic, and Id) on modulating M1 and M4 receptors are shown below in Table 3. […]
# M3 muscarinic receptor = target: T2, M3 muscarinic receptor (Homo sapiens, UniProt P20309); test: Functional mobilization of intracellular calcium (FLIPR), M3-CHO cells; details: for Emax: 100% efficacy is the maximum response obtained with the Carbachol control; for M3 Activity: CHO cells expressing M3, calcium mobilization
# T2 construct: expressed in transfected cells; host or cells: CHO (M3-CHO)
# T2 sequence (P20309 whole entry): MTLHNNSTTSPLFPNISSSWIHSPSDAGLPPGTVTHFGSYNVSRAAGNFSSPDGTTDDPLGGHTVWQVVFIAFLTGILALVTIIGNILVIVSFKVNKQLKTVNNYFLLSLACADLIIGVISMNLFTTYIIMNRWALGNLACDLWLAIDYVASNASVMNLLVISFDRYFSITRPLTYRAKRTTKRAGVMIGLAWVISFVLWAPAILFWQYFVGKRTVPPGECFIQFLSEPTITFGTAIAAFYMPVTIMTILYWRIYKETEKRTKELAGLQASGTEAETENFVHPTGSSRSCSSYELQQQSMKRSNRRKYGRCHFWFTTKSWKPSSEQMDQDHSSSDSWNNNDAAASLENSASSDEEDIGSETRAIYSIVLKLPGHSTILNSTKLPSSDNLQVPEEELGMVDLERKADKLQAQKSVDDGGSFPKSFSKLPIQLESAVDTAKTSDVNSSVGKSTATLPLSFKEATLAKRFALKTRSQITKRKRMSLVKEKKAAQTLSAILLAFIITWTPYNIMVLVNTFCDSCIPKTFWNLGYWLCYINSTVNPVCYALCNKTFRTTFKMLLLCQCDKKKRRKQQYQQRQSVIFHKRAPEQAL
# Method: as §1, §2, §3, §4, §5, §6
# M2 muscarinic receptor = target: T3, M2 muscarinic receptor (Homo sapiens, UniProt P08172); test: Functional mobilization of intracellular calcium (FLIPR), M2-CHO cells; details: for Emax: 100% efficacy is the maximum response obtained with the Carbachol control; for M2 Activity: CHO cells expressing M2, calcium mobilization
# T3 construct: expressed in transfected cells; host or cells: CHO (M2-CHO)
# T3 sequence (P08172 1-466): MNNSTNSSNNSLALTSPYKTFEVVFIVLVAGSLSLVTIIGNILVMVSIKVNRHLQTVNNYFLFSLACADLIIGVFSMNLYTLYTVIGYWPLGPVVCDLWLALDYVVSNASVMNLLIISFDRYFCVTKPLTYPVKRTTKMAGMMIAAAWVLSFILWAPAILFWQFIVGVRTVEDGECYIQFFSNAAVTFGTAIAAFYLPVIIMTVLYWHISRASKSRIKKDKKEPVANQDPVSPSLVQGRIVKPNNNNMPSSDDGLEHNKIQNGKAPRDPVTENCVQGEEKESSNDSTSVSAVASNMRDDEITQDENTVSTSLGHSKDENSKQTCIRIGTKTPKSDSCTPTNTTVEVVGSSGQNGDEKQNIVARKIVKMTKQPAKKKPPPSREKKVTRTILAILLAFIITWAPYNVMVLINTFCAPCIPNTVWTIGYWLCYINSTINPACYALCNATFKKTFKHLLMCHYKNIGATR
# Method: as §1, §2, §3, §4, §5, §6
# M1 muscarinic receptor = target: T4, M1 muscarinic receptor (Homo sapiens, UniProt P11229); test: Functional mobilization of intracellular calcium (FLIPR), M1-CHO cells; details: for Emax: 100% efficacy is the maximum response obtained with the Carbachol control; for M1 Activity: CHO cells expressing M1, calcium mobilization
# T4 construct: expressed in transfected cells; host or cells: CHO (M1-CHO)
# T4 sequence (P11229 1-460): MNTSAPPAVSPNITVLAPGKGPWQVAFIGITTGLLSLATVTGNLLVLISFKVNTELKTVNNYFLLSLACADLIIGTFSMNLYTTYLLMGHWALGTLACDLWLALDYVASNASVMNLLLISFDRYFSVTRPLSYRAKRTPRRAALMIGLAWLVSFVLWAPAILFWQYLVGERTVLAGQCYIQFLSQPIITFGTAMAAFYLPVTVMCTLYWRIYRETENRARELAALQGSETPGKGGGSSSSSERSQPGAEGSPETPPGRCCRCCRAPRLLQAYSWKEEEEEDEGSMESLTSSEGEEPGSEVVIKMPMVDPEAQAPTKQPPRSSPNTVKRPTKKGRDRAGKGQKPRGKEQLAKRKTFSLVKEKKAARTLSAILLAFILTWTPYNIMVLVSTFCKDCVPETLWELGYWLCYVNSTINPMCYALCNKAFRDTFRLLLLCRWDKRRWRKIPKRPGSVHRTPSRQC
# Method: as §1, §2, §3, §4, §5, §6
SMILES,Emax (M4 muscarinic receptor) [%],M4 Activity (M4 muscarinic receptor),Emax (M3 muscarinic receptor) [%],M3 Activity (M3 muscarinic receptor),Emax (M2 muscarinic receptor) [%],M2 Activity (M2 muscarinic receptor),Emax (M1 muscarinic receptor) [%],M1 Activity (M1 muscarinic receptor)
O=C1Nc2ccccc2C2(CCN(CC3CCCCC3)CC2)O1 [Compound 27],25 to 100,+++ (activity was measured to be less than 2.0 μM),< 25,+ (activity was measured to be greater than 5.0 μM),25 to 100,++ (activity was measured to be from 2.0 μM to 5.0 μM),25 to 100,+++ (activity was measured to be less than 2.0 μM)
CCC(C)(C)C1CCC(N2CCC3(CC2)OC(=O)Nc2ccccc23)CC1 (stereo not shown) [Compound 35],< 25,+ (activity was measured to be greater than 5.0 μM),< 25,+ (activity was measured to be greater than 5.0 μM),< 25,+ (activity was measured to be greater than 5.0 μM),25 to 100,+++ (activity was measured to be less than 2.0 μM)
"CCOC(=O)N1CCC(CN2CCC3(CC2)OC(=O)Nc2ccccc23)CC1 [Compound 13, ethyl-4-((2-oxo-1,2-dihydrospiro[benzo[d][1,3]oxazine-4,4′-piperidine]-1′-yl)methyl)piperidine-1-carboxylate]",25 to 100,+++ (activity was measured to be less than 2.0 μM),25 to 100,+++ (activity was measured to be less than 2.0 μM),25 to 100,+++ (activity was measured to be less than 2.0 μM),25 to 100,+++ (activity was measured to be less than 2.0 μM)
"CN1C(=O)OC2(CCN(C3CCCCCC3)CC2)c2ccccc21 [Compound 65, 1′-cycloheptyl-1-methylspiro[benzo[d][1,3]oxazine-4,4′-piperidin]-2(1H)-one]",25 to 100,+++ (activity was measured to be less than 2.0 μM),< 25,+ (activity was measured to be greater than 5.0 μM),< 25,+ (activity was measured to be greater than 5.0 μM),< 25,+ (activity was measured to be greater than 5.0 μM)
CCOC(=O)N1CCC(N2CCC3(CC2)OC(=O)Nc2ccccc23)CC1 [Compound 62],25 to 100,+++ (activity was measured to be less than 2.0 μM),25 to 100,+++ (activity was measured to be less than 2.0 μM),25 to 100,+++ (activity was measured to be less than 2.0 μM),25 to 100,+++ (activity was measured to be less than 2.0 μM)
